Laboratory results taken from patent US11498899B2, “Nitrone herbicides” (FMC Corporation, priority 2016, dated 2022).

What was measured:
[1] = system: ducksalad (Heteranthera limosa); experiment: Test B flooded paddy test, visual rating 0-100; details: Flood, 250 g ai/ha, applied to paddy water, rated after 13 to 15 days
[2] = system: barnyardgrass (Echinochloa crus-galli); experiment: Test B flooded paddy test, visual rating 0-100; details: Flood, 250 g ai/ha, applied to paddy water, rated after 13 to 15 days
[3] = system: ryegrass, Italian (Italian ryegrass, Lolium multiflorum); experiment: Test A postemergence, visual injury rating 0-100; type: in vivo; details: 0 to 100 scale
Text: (§1) Seeds of plant species selected from barnyardgrass (Echinochloa crus-galli), kochia (Kochia scoparia), ragweed (common ragweed, Ambrosia elatior), ryegrass, Italian (Italian ryegrass, Lolium multiflorum), foxtail, giant (giant foxtail, Setaria faberii), foxtail, green (green foxtail, Setaria viridis), and pigweed (Amaranthus retroflexus) were planted into a blend of loam soil and sand and treated preemergence with a directed soil spray using test chemicals formulated in a non-phytotoxic solvent mixture which included a surfactant.
(§2) At the same time, plants selected from these weed species and also wheat (Triticum aestivum), corn (Zea mays), blackgrass (Alopecurus myosuroides), and galium (catchweed bedstraw, Galium aparine) were planted in pots containing the same blend of loam soil and sand and treated with postemergence applications of test chemicals formulated in the same manner. Plants ranged in height from 2 to 10 cm and were in the one- to two-leaf stage for the postemergence treatment. Treated plants and untreated controls were maintained in a greenhouse for approximately 10 days, after which time all treated plants were compared to untreated controls and visually evaluated for injury. […] A dash (-) response means no test result.

[4] = system: ragweed (common ragweed, Ambrosia elatior); experiment: Test A postemergence, visual injury rating 0-100; type: in vivo; details: 0 to 100 scale
Text: as §1, §2

[5] = system: wheat (Triticum aestivum); experiment: Test A postemergence, visual injury rating 0-100; type: in vivo; details: 0 to 100 scale
Text: as §1, §2

[6] = system: foxtail, giant (giant foxtail, Setaria faberii); experiment: Test A postemergence, visual injury rating 0-100; type: in vivo; details: 0 to 100 scale
Text: as §1, §2

corn (Zea mays) = experiment: Test A postemergence, visual injury rating 0-100; type: in vivo; details: 0 to 100 scale
Text: as §1, §2

[7] = system: pigweed (Amaranthus retroflexus); experiment: Test A postemergence, visual injury rating 0-100; type: in vivo; details: 0 to 100 scale
Text: as §1, §2

kochia (Kochia scoparia) [8] = experiment: Test A postemergence, visual injury rating 0-100; type: in vivo; details: 0 to 100 scale
Text: as §1, §2

[9] = system: galium (catchweed bedstraw, Galium aparine); experiment: Test A postemergence, visual injury rating 0-100; type: in vivo; details: 0 to 100 scale
Text: as §1, §2

[10] = system: barnyardgrass (Echinochloa crus-galli); experiment: Test A postemergence, visual injury rating 0-100; type: in vivo; details: 0 to 100 scale
Text: as §1, §2

[11] = system: blackgrass (Alopecurus myosuroides); experiment: Test A postemergence, visual injury rating 0-100; type: in vivo; details: 0 to 100 scale
Text: as §1, §2

[12] = system: barnyardgrass (Echinochloa crus-galli); experiment: Test A preemergence, visual injury rating 0-100 (0 no effect, 100 complete control); type: in vivo
[13] = system: ryegrass, Italian (Italian ryegrass, Lolium multiflorum); experiment: Test A preemergence, visual injury rating 0-100; type: in vivo
[14] = system: ragweed (common ragweed, Ambrosia elatior); experiment: Test A preemergence, visual injury rating 0-100; type: in vivo
[15] = system: foxtail, giant (giant foxtail, Setaria faberii); experiment: Test A preemergence, visual injury rating 0-100; type: in vivo
[16] = system: pigweed (Amaranthus retroflexus); experiment: Test A preemergence, visual injury rating 0-100; type: in vivo
kochia (Kochia scoparia) [17] = experiment: Test A preemergence, visual injury rating 0-100; type: in vivo
rice (Oryza sativa) = experiment: Test B flooded paddy test, visual rating 0-100 (0 no effect, 100 complete control); details: Flood, 250 g ai/ha, applied to paddy water, rated after 13 to 15 days
[18] = 125 g ai/ha, 0 to 100 scale (0 no effect, 100 complete control), approx. 10 days

Row | Structure (SMILES) | Ducksalad plant response rating (0 to 100 scale) [1] | Barnyardgrass plant response rating (0 to 100 scale) [2] | Ryegrass, Italian plant response rating ([3]; 125 g ai/ha) | Ryegrass, Italian plant response rating ([3]; 500 g ai/ha) | Ragweed plant response rating ([4]; 125 g ai/ha) | Ragweed plant response rating ([4]; 500 g ai/ha) | Wheat plant response rating ([5]; 125 g ai/ha) | Wheat plant response rating ([5]; 500 g ai/ha) | Foxtail, Giant plant response rating ([6]; 125 g ai/ha) | Foxtail, Giant plant response rating ([6]; 500 g ai/ha) | Corn plant response rating (corn (Zea mays); 125 g ai/ha) | Corn plant response rating (corn (Zea mays); 500 g ai/ha) | Pigweed plant response rating ([7]; 125 g ai/ha) | Pigweed plant response rating ([7]; 500 g ai/ha) | Kochia plant response rating (kochia (Kochia scoparia) [8]; 125 g ai/ha) | Kochia plant response rating (kochia (Kochia scoparia) [8]; 500 g ai/ha) | Galium plant response rating ([9]; 125 g ai/ha) | Galium plant response rating ([9]; 500 g ai/ha) | Barnyardgrass plant response rating ([10]; 125 g ai/ha) | Barnyardgrass plant response rating ([10]; 500 g ai/ha) | further results
1 | COc1cc(C2CC(C)=[N+]([O-])C2C(=O)Nc2cccc(F)c2F)ccc1C(F)(F)F (centres unmarked) [Compound 100] | 0 | 0 | 0 | 70 | 20 | 70 | 20 | 50 | 60 | 90 | 30 | 70 | 0 | 40 | 20 | 70 | 70 | 80 | 70 | 90 | Blackgrass plant response rating ([11]; 125 g ai/ha): 30; Blackgrass plant response rating ([11]; 500 g ai/ha): 70; Barnyardgrass plant response rating (0 to 100 scale) ([12]; 125 g ai/ha): 90; Barnyardgrass plant response rating (0 to 100 scale) ([12]; 500 g ai/ha): 90; Ryegrass, Italian plant response rating (0 to 100 scale) ([13]; 125 g ai/ha): 0; Ryegrass, Italian plant response rating (0 to 100 scale) ([13]; 500 g ai/ha): 90; Ragweed plant response rating (0 to 100 scale) ([14]; 125 g ai/ha): 0; Ragweed plant response rating (0 to 100 scale) ([14]; 500 g ai/ha): 80; Foxtail, Giant plant response rating (0 to 100 scale) ([15]; 125 g ai/ha): 90; Foxtail, Giant plant response rating (0 to 100 scale) ([15]; 500 g ai/ha): 90; Pigweed plant response rating (0 to 100 scale) ([16]; 125 g ai/ha): 0; Pigweed plant response rating (0 to 100 scale) ([16]; 500 g ai/ha): 60; Kochia plant response rating (0 to 100 scale) (kochia (Kochia scoparia) [17]; 125 g ai/ha): 40; Kochia plant response rating (0 to 100 scale) (kochia (Kochia scoparia) [17]; 500 g ai/ha): 80; Rice plant response rating (0 to 100 scale) (rice (Oryza sativa)): 0
2 | CC1=[N+]([O-])C(C(=O)Nc2cccc(F)c2F)C(c2ccc(C(F)(F)F)nc2)C1 (racemic) [Compound 60] | 0 | 40 | 0 | 40 | 0 | 40 | 20 | 70 | 70 | 90 | 20 | 60 | 0 | 10 | 0 | 10 | 20 | 60 | 40 | 90 | Blackgrass plant response rating ([11]; 125 g ai/ha): 10; Blackgrass plant response rating ([11]; 500 g ai/ha): 70; Barnyardgrass plant response rating (0 to 100 scale) ([12]; 125 g ai/ha): 90; Barnyardgrass plant response rating (0 to 100 scale) ([12]; 500 g ai/ha): 100; Ryegrass, Italian plant response rating (0 to 100 scale) ([13]; 125 g ai/ha): 10; Ryegrass, Italian plant response rating (0 to 100 scale) ([13]; 500 g ai/ha): 70; Ragweed plant response rating (0 to 100 scale) ([14]; 125 g ai/ha): 0; Ragweed plant response rating (0 to 100 scale) ([14]; 500 g ai/ha): 90; Foxtail, Giant plant response rating (0 to 100 scale) ([15]; 125 g ai/ha): 90; Foxtail, Giant plant response rating (0 to 100 scale) ([15]; 500 g ai/ha): 100; Pigweed plant response rating (0 to 100 scale) ([16]; 125 g ai/ha): 50; Pigweed plant response rating (0 to 100 scale) ([16]; 500 g ai/ha): 80; Kochia plant response rating (0 to 100 scale) (kochia (Kochia scoparia) [17]; 125 g ai/ha): 10; Kochia plant response rating (0 to 100 scale) (kochia (Kochia scoparia) [17]; 500 g ai/ha): 80; Rice plant response rating (0 to 100 scale) (rice (Oryza sativa)): 0
3 | CC1=[N+]([O-])C(C(=O)Nc2cccc(F)c2F)C(c2cccc(C(F)(F)F)c2C)C1 (racemic) [Compound 106] | 70 | 60 | 70 | 70 | 30 | 70 | 40 | 70 | 80 | 90 | 60 | 90 | 0 | 20 | 0 | 30 | 40 | 70 | 70 | 90 | Blackgrass plant response rating ([11]; 125 g ai/ha): 80; Blackgrass plant response rating ([11]; 500 g ai/ha): 70; Barnyardgrass plant response rating (0 to 100 scale) ([12]; 125 g ai/ha): 90; Barnyardgrass plant response rating (0 to 100 scale) ([12]; 500 g ai/ha): 90; Ryegrass, Italian plant response rating (0 to 100 scale) ([13]; 500 g ai/ha): 90; Ragweed plant response rating (0 to 100 scale) ([14]; 125 g ai/ha): 0; Ragweed plant response rating (0 to 100 scale) ([14]; 500 g ai/ha): 40; Foxtail, Giant plant response rating (0 to 100 scale) ([15]; 125 g ai/ha): 90; Foxtail, Giant plant response rating (0 to 100 scale) ([15]; 500 g ai/ha): 100; Pigweed plant response rating (0 to 100 scale) ([16]; 125 g ai/ha): 0; Pigweed plant response rating (0 to 100 scale) ([16]; 500 g ai/ha): 60; Kochia plant response rating (0 to 100 scale) (kochia (Kochia scoparia) [17]; 125 g ai/ha): 0; Kochia plant response rating (0 to 100 scale) (kochia (Kochia scoparia) [17]; 500 g ai/ha): 70; Rice plant response rating (0 to 100 scale) (rice (Oryza sativa)): 0
4 | CC1=[N+]([O-])C(C(=O)Nc2cccc(F)c2F)C(c2ccc(=O)n(Cc3ccc(Cl)cc3)c2)C1 (racemic) [Compound 119] | 0 | 0 | 10 | 20 | 0 | 0 | 0 | 0 | 0 | 0 | 0 | 0 | 0 | 0 | 0 | 0 | 0 | 0 | 0 | 0 | Blackgrass plant response rating ([11]; 125 g ai/ha): 0; Blackgrass plant response rating ([11]; 500 g ai/ha): 0; Barnyardgrass plant response rating [12, 18]: 0; Barnyardgrass plant response rating (0 to 100 scale) ([12]; 500 g ai/ha): 0; Ryegrass, Italian plant response rating [13, 18]: 0; Ryegrass, Italian plant response rating (0 to 100 scale) ([13]; 500 g ai/ha): 0; Ragweed plant response rating [14, 18]: 0; Foxtail, Giant plant response rating [15, 18]: 0; Foxtail, Giant plant response rating (0 to 100 scale) ([15]; 500 g ai/ha): 0; Pigweed plant response rating [16, 18]: 0; Pigweed plant response rating (0 to 100 scale) ([16]; 500 g ai/ha): 0; Kochia plant response rating (kochia (Kochia scoparia) [17]; [18]): 0; Kochia plant response rating (0 to 100 scale) (kochia (Kochia scoparia) [17]; 500 g ai/ha): 0; Rice plant response rating (0 to 100 scale) (rice (Oryza sativa)): 0
5 | CC1=[N+]([O-])C(C(=O)Nc2cccc(F)c2F)C(c2cc(C(F)(F)F)ccc2C)C1 (centres unmarked) [Compound 98] | 100 | 55 | 40 | 70 | 30 | 30 | 60 | 70 | 80 | 90 | 60 | 80 | 0 | 30 | 0 | 0 | 0 | 40 | 70 | 90 | Blackgrass plant response rating ([11]; 125 g ai/ha): 70; Blackgrass plant response rating ([11]; 500 g ai/ha): 70; Barnyardgrass plant response rating (0 to 100 scale) ([12]; 125 g ai/ha): 90; Barnyardgrass plant response rating (0 to 100 scale) ([12]; 500 g ai/ha): 90; Ryegrass, Italian plant response rating (0 to 100 scale) ([13]; 125 g ai/ha): 90; Ryegrass, Italian plant response rating (0 to 100 scale) ([13]; 500 g ai/ha): 100; Ragweed plant response rating (0 to 100 scale) ([14]; 125 g ai/ha): 20; Ragweed plant response rating (0 to 100 scale) ([14]; 500 g ai/ha): 80; Foxtail, Giant plant response rating (0 to 100 scale) ([15]; 125 g ai/ha): 90; Foxtail, Giant plant response rating (0 to 100 scale) ([15]; 500 g ai/ha): 100; Pigweed plant response rating (0 to 100 scale) ([16]; 125 g ai/ha): 0; Pigweed plant response rating (0 to 100 scale) ([16]; 500 g ai/ha): 70; Kochia plant response rating (0 to 100 scale) (kochia (Kochia scoparia) [17]; 125 g ai/ha): 10; Kochia plant response rating (0 to 100 scale) (kochia (Kochia scoparia) [17]; 500 g ai/ha): 80; Rice plant response rating (0 to 100 scale) (rice (Oryza sativa)): 0
